6 compounds from ChEMBL document CHEMBL3525915, “Elucidation of a novel bioactivation pathway of a 3,4-unsubstituted isoxazole in human liver microsomes: formation of a glutathione adduct of a cyanoacrolein derivative after isoxazole ring opening” (Drug Metab Dispos, 2011) can be followed below.

In data set [1] the test system is Liver microsome. The data set can be described thus: Drug metabolism in human liver microsomes assessed as (Z)-3-cyano-2-hydroxy-N-((2-isopropyl-7-methyl-1-oxoisoindolin-5-yl)methyl)acrylamide formation at 20 uM for 1 hr by LC-MS/MS analysis in presence of NADPH. The class given is ADME. (Liver microsomes are a subcellular fraction often used to study metabolism.)

For data set [2], the system named is Liver microsome. The data set can be described thus: Drug metabolism in human liver microsomes assessed as 2-amino-5-(1-(carboxymethylamino)-3-(3-cyano-5-((2-isopropyl-7-methyl-1-oxoisoindolin-5-yl)methylamino)-4,5-dioxopentan-2-ylthio)-1-oxopropan-2-ylamino)-5-oxopentanoic acid formation at 20 uM (drug stock solution contained ethanol) by LC-MS/MS analysis in presence of NADPH. The class given is ADME.

In data set [3] the test system is Liver microsome. The data set can be described thus: Retention time of the compound in human liver microsomes in presence of NADPH at 37 degC incubated for 1 hr by liquid chromatography. The class given is ADME.
The test system of data set [4] is Liver microsome. The data set can be described thus: Drug metabolism in human liver microsomes assessed metabolite formation at 20 uM in absence of NADPH at 37 degC incubated for 1 hr by liquid chromatography. The class given is ADME.
For data set [5], the system named is Liver microsome. The data set can be described thus: Drug metabolism in human liver microsomes assessed ratio of sum peak areas of metabolite M1 and M2 to peak area of internal standard at 20 uM in presence of NADPH and 1 mM 1-ABT at 37 degC incubated for 1 hr by liquid chromatography. The class given is ADME.
In data set [6] the test system is Liver microsome. The data set can be described thus: Drug metabolism in human liver microsomes assessed ratio of sum peak areas of metabolite M1 and M2 to peak area of internal standard at 20 uM in presence of NADPH and in absence of 1 mM 1-ABT at 37 degC incubated for 1 hr by liquid chromatography. The class given is ADME.
For data set [7], the system named is Liver microsome. The data set can be described thus: Drug metabolism in human liver microsomes assessed as metabolite formation at 20 uM (drug stock solution contained 1% acetonitrile) LC-MS/MS analysis in presence of NADPH and GSH. The class given is ADME.
Data set [8] deals with Liver microsome. The data set can be described thus: Drug level in human liver microsomes assessed as compound formation treated with 20 uM N-((2-isopropyl-7-methyl-1-oxoisoindolin-5-yl)methyl)isoxazole-5-carboxamide (drug stock solution contained 1% ethanol) LC-MS/MS analysis in presence of NADPH. The class given is ADME.
The subject of data set [9] is Liver microsome. The data set can be described thus: Drug level in human liver microsomes assessed as compound formation treated with 20 uM N-((2-isopropyl-7-methyl-1-oxoisoindolin-5-yl)methyl)isoxazole-5-carboxamide (drug stock solution contained 1% acetonitrile) LC-MS/MS analysis in presence of NADPH. The class given is ADME.
The subject of data set [10] is Liver microsome. The data set can be described thus: Drug level in human liver microsomes assessed as compound formation treated with 20 uM N-((2-isopropyl-7-methyl-1-oxoisoindolin-5-yl)methyl)isoxazole-5-carboxamide for 1 hr by LC-MS/MS analysis in presence of NADPH. The class given is ADME.
A short description of data set [11]: Drug level in 0.1 N NaOH aqueous solution assessed as compound formation treated with 40 uM N-((2-isopropyl-7-methyl-1-oxoisoindolin-5-yl)methyl)isoxazole-5-carboxamide for 20 mins by LC-MS/MS analysis. The class given is physicochemical. The following applies: buffer.
Data set [12] has as its system Liver microsome. The data set can be described thus: Drug level in human liver microsomes assessed as compound formation treated with 20 uM N-((2-isopropyl-7-methyl-1-oxoisoindolin-5-yl)methyl)isoxazole-5-carboxamide (drug stock solution contained 1% methanol) LC-MS/MS analysis in presence of NADPH and GSH. The class given is ADME.
A short description of data set [13]: Drug level in 0.1 N NaOH aqueous solution assessed as compound formation treated with 40 uM N-((2-isopropyl-7-methyl-1-oxoisoindolin-5-yl)methyl)isoxazole-5-carboxamide for 20 mins at pH 7.5 by LC-MS/MS analysis in presence of formaldehyde and GSH. The class given is physicochemical. The following applies: buffer, pH 7.5, 20 min.
In data set [14] the test system is Liver microsome. The data set can be described thus: Drug level in human liver microsomes assessed as compound formation treated with 20 uM N-((2-isopropyl-7-methyl-1-oxoisoindolin-5-yl)methyl)isoxazole-5-carboxamide (drug stock solution contained 1% acetonitrile) LC-MS/MS analysis in presence of NADPH and GSH. The class given is ADME.
Data set [15] has as its system Liver microsome. The data set can be described thus: Drug metabolism in human liver microsomes treated with 20 uM N-((2-isopropyl-7-methyl-1-oxoisoindolin-5-yl)methyl)isoxazole-5-carboxamide assessed compound formation in presence of NADPH using [13C]-labeled CH3OH drug stock solution at 37 degC incubated for 1 hr by liquid chromatography. The class given is ADME.

Consider `Cc1cc(CNC(=O)c2ccno2)cc2c1C(=O)N(C(C)C)C2`, for which the Drug metabolism entry is on record as “metabolite_detected” in the data set with Liver microsome [1], “metabolite_detected” in the data set on Liver microsome [2], “metabolite_not_detected” in the data set with Liver microsome [4] and “metabolite_not_detected” in the data set with Liver microsome [7]. In addition, the Retention_time in the data set on Liver microsome [3] was 17.06 min. Besides, the results for the Ratio in the data set on Liver microsome [5] and with Liver microsome [6] were 0.128 and 1.22, respectively.

In the case of `Cc1cc(CNC(=O)C(=O)C(C#N)C(C)SC[C@H](NC(=O)CC[C@H](N)C(=O)O)C(=O)NCC(=O)O)cc2c1C(=O)N(C(C)C)C2` (single isomer, unassigned; diastereomer 2), the Drug metabolism entry in the data set on Liver microsome [8] is “metabolite_detected”; in the data set on Liver microsome [9], “metabolite_not_detected”. For the same compound, the Retention_time with Liver microsome [3] was 10.08 min.

For `Cc1cc(CNC(=O)/C(O)=C/C#N)cc2c1C(=O)N(C(C)C)C2`, the Drug metabolism entry (with Liver microsome [10]; in data set [11]) was “metabolite_detected” each time. In addition, the Retention_time with Liver microsome [3] worked out at 13.55 min.

Turning to `Cc1cc(CNC(=O)C(=O)CC#N)cc2c1C(=O)N(C(C)C)C2`, in data set [11], the Drug metabolism result is “metabolite_detected”. The Retention_time in the data set on Liver microsome [3] came to 12.69 min.

With `Cc1cc(CNC(=O)C(=O)C(C#N)C(C)SC[C@H](NC(=O)CC[C@H](N)C(=O)O)C(=O)NCC(=O)O)cc2c1C(=O)N(C(C)C)C2` (single isomer, unassigned; diastereomer 1), in the data set with Liver microsome [3], the Retention_time was 10.82 min.

As for `Cc1cc(CNC(=O)C(=O)C(C#N)CSC[C@H](NC(=O)CC[C@H](N)C(=O)O)C(=O)NCC(=O)O)cc2c1C(=O)N(C(C)C)C2` (some centres not stated), the Drug metabolism entry with Liver microsome [12] was “metabolite_detected”; in data set [11], “metabolite_detected”; in [13], “metabolite_detected”; in the data set with Liver microsome [14], “metabolite_not_detected”; with Liver microsome [15] it was “metabolite_detected”. Also, the Retention_time with Liver microsome [3] was 9.72 min.
